Test results from patent US5624961A, “Benzylaminoethoxybenzene derivatives, production thereof and use thereof” (priority 1994, dated 1997).
Where a name gives a salt, the structure may show the parent alone.

Columns and labels:
α1 -adrenoceptor = experiment: α1-adrenoceptor blocking effect, preparation from the thoracic aorta of rabbit, Magnus method; type: cell-based
Protocol: Blocking of α1 -adrenoceptor
The α1 -adrenoceptor blocking effect was determined using a preparation from the thoracic aorta of rabbit, according to the Magnus method and expressed as pA2 value.

rabbit = experiment: Orthostatic hypotensive effect, tilting of unanesthetized rabbit, orthostatic index (O.I.); type: in vivo; settings: iv, tilted 90°, without anesthetization
Text: Orthostatic hypotensive effect
The orthostatic hypotensive effect was examined by the following method which is in accordance with the method of Journal of Pharmacological Methods, vol. 5, p. 53 (1981). A rabbit was fixed at the dorsal position without anesthetization on an orthostatic hypotension measurement apparatus. Polyethylene catheters were inserted in right femoral artery and right femoral vein, and the catheter inserted in the artery was connected to a pressure transducer. The head of the rabbit was tilted rapidly at an angle of 90° from the horizontal position at 15 min intervals with the heart position as a rotational axis, and brought back to the horizontal position one minute later. The tilting was repeated three times, and after confirmation of occurrence of a constant response, a drug was administered from the polyethylene catheter inserted in the vein. […] [formula] (2) Test results

Structure (SMILES): COc1c(C)c(C)c(O)c(C)c1CN(C)CCOc1cc(C)c(O)cc1C(C)C [Ex. 1, N-(3-hydroxy-6-methoxy-2,4,5-trimethylbenzyl)-N-methyl-2-(4-hydroxy-2-isopropyl-5-methylphenoxy)ethylamine]
- pA2 value (α1 -adrenoceptor): 9.0
- Dose necessary for O.I. value to achieve 90% (rabbit): 56.4 μg/kg, iv

Structure (SMILES): Cc1cc(OCCN(C)Cc2c(C)c(O)c(C)c(C)c2OCCO)c(C(C)C)cc1O [Ex. 2, N-{3-hydroxy-6-(2-hydroxyethoxy)-2,4,5-trimethylbenzyl}-N-methyl-2-(4-hydroxy-2-isopropyl-5-methylphenoxy)ethylamine]
- pA2 value (α1 -adrenoceptor): 8.1

Structure (SMILES): COc1c(C)c(C)c(O)c(C)c1CNCCOc1cc(C)c(NC(C)=O)cc1C(C)C [Ex. 3, N-(3-hydroxy-6-methoxy-2,4,5-trimethylbenzyl)-2-(4-acetylamino-2-isopropyl-5-methylphenoxy)ethylamine]
- pA2 value (α1 -adrenoceptor): 8.2

Structure (SMILES): CCOc1c(C)c(C)c(O)c(C)c1CN(C)CCOc1cc(C)c(O)cc1C(C)C [Ex. 4, N-(2-ethoxy-5-hydroxy-3,4,6-trimethylbenzyl)-N-methyl-2-(4-hydroxy-2-isopropyl-5-methylphenoxy)ethylamine]
- pA2 value (α1 -adrenoceptor): 8.5
- Dose necessary for O.I. value to achieve 90% (rabbit): 61.3 μg/kg, iv

Structure (SMILES): CCOc1c(C)c(C)c(OC(C)=O)c(C)c1CN(C)CCOc1cc(C)c(OC(C)=O)cc1C(C)C [Ex. 5, N-(3-acetoxy-6-ethoxy-2,4,5-trimethylbenzyl)-N-methyl-2-(4-acetoxy-2-isopropyl-5-methylphenoxy)ethylamine]
- pA2 value (α1 -adrenoceptor): 8.3

Structure (SMILES): CCN(CC)CCN(CCOc1cc(C)ccc1C(C)C)Cc1c(C)c(O)c(C)c(C)c1OC [Ex. 6, N-(2-diethylaminoethyl)-N-(3-hydroxy-6-methoxy-2,4,5-trimethylbenzyl)-2-(2-isopropyl-5-methylphenoxy)ethylamine]
- pA2 value (α1 -adrenoceptor): 7.5

Structure (SMILES): CCN(CCOc1cc(C)c(Cl)cc1C(C)C)Cc1c(C)c(O)c(C)c(C)c1OC [Ex. 7, N-ethyl-N-(3-hydroxy-6-methoxy-2,4,5-trimethylbenzyl)-2-(4-chloro-2-isopropyl-5-methylphenoxy)ethylamine]
- pA2 value (α1 -adrenoceptor): 7.7

Structure (SMILES): COc1c(C)c(C)c(OC)c(CN(CCOc2cc(C)ccc2C(C)C)C(C)=O)c1C [Ex. 8, N-{2-(2-isopropyl-5-methylphenoxy)ethyl}-N-(2,5-dimethoxy-3,4,6-trimethylbenzyl)acetamide]
- pA2 value (α1 -adrenoceptor): 7.3

Structure (SMILES): COc1c(C)c(C)c(O)c(C)c1CN(C)CCOc1cc(C)c(C(C)=O)cc1C(C)C [Ex. 9, N-(3-hydroxy-6-methoxy-2,4,5-trimethylbenzyl)-N-methyl-2-(4-acetyl-2-isopropyl-5-methylphenoxy)ethylamine]
- pA2 value (α1 -adrenoceptor): 7.5

Structure (SMILES): COc1c(C)c(C)c(OC)c(CN(C)CCOc2cc(C)c(NC(C)=O)cc2C(C)C)c1C [Ex. 10, N-(2,5-dimethoxy-3,4,6-trimethylbenzyl)-N-methyl-2-(4-acetylamino-2-isopropyl-5-methylphenoxy)ethylamine]
- pA2 value (α1 -adrenoceptor): 7.4

Structure (SMILES): COc1c(C)c(C)c(OC)c(CN(C)CCOc2cc(C)c(N)cc2C(C)C)c1C [Ex. 11, N-(2,5-dimethoxy-3,4,6-trimethylbenzyl)-N-methyl-2-(4-amino-2-isopropyl-5-methylphenoxy)ethylamine]
- pA2 value (α1 -adrenoceptor): 8.3

Structure (SMILES): COc1c(C)c(C)c(O)c(C)c1CN(C)CCOc1cc(C)ccc1C(C)C [Ex. 12, N-(3-hydroxy-6-methoxy-2,4,5-trimethylbenzyl)-N-methyl-2-(2-isopropyl-5-methylphenoxy)ethylamine]
- pA2 value (α1 -adrenoceptor): 8.1

Structure (SMILES): COc1c(C)c(C)c(OC(C)C)c(C)c1CN(C)CCOc1cc(C)ccc1C(C)C [Ex. 14, N-(3-isopropoxy-6-methoxy-2,4,5-trimethylbenzyl)-N-methyl-2-(2-isopropyl-5-methylphenoxy)ethylamine]
- pA2 value (α1 -adrenoceptor): 7.6

Structure (SMILES): CCOc1c(C)c(C)c(OC)c(CN(C)CCOc2cc(C)ccc2C(C)C)c1C [Ex. 15, N-(3-ethoxy-6-methoxy-2,4,5-trimethylbenzyl)-N-methyl-2-(2-isopropyl-5-methylphenoxy)ethylamine]
- pA2 value (α1 -adrenoceptor): 7.5

Structure (SMILES): Cc1ccc(C(C)C)c(OCCN(C)Cc2c(C)c(O)c(C)c(C)c2OCCO)c1 [Ex. 16, N-{3-hydroxy-6-(2-hydroxyethoxy)-2,4,5-trimethylbenzyl}-N-methyl-2-(2-isopropyl-5-methylphenoxy)ethylamine]
- pA2 value (α1 -adrenoceptor): 7.6

Structure (SMILES): C=CCOc1c(C)c(C)c(OC(C)=O)c(C)c1CN(C)CCOc1cc(C)ccc1C(C)C [Ex. 17, N-{3-acetoxy-6-(2-propenyloxy)-2,4,5-trimethylbenzyl}-N-methyl-2-(2-isopropyl-5-methylphenoxy)ethylamine]
- pA2 value (α1 -adrenoceptor): 7.4

Structure (SMILES): CCN(CCOc1cc(C)c(Cl)cc1C(C)C)Cc1c(C)c(OC(C)=O)c(C)c(C)c1OC(C)C [Ex. 18, N-(3-acetoxy-6-isopropoxy-2,4,5-trimethylbenzyl)-N-ethyl-2-(4-chloro-2-isopropyl-5-methylphenoxy)ethylamine]
- pA2 value (α1 -adrenoceptor): 7.2

Structure (SMILES): CCOc1c(C)c(C)c(O)c(CNCCOc2cc(C)ccc2C(C)C)c1C [Ex. 19, N-(3-ethoxy-6-hydroxy-2,4,5-trimethylbenzyl)-2-(2-isopropyl-5-methylphenoxy)ethylamine]
- pA2 value (α1 -adrenoceptor): 7.3

Structure (SMILES): CCOc1c(C)c(C)c(OCc2ccccc2)c(CNCCOc2cc(C)ccc2C(C)C)c1C [Ex. 20, N-(2-benzyloxy-5-ethoxy-3,4,6-trimethylbenzyl)-2-(2-isopropyl-5-methylphenoxy)ethylamine]
- pA2 value (α1 -adrenoceptor): 7.2

Structure (SMILES): COc1c(C)c(C)c(O)c(C)c1CNCCOc1cc(C)c(O)cc1C(C)C [Ex. 21, N-(3-hydroxy-6-methoxy-2,4,5-trimethylbenzyl)-2-(4-hydroxy-2-isopropyl-5-methylphenoxy)ethylamine]
- pA2 value (α1 -adrenoceptor): 9.8
- Dose necessary for O.I. value to achieve 90% (rabbit): 32.8 μg/kg, iv

Structure (SMILES): COc1c(C)c(C)c(O)c(C)c1CN(CCOc1cc(C)c(O)cc1C(C)C)C(C)C [Ex. 22, N-(3-hydroxy-6-methoxy-2,4,5-trimethylbenzyl)-N-isopropyl-2-(4-hydroxy-2-isopropyl-5-methylphenoxy)ethylamine]
- pA2 value (α1 -adrenoceptor): 7.5

Structure (SMILES): COCCN(CCOc1cc(C)c(O)cc1C(C)C)Cc1c(C)c(O)c(C)c(C)c1OC [Ex. 23, N-(3-hydroxy-6-methoxy-2,4,5-trimethylbenzyl)-N-(2-methoxyethyl)-2-(4-hydroxy-2-isopropyl-5-methylphenoxy)ethylamine]
- pA2 value (α1 -adrenoceptor): 7.6

Structure (SMILES): CCCOc1c(C)c(C)c(O)c(C)c1CN(C)CCOc1cc(C)c(O)cc1C(C)C [Ex. 24, N-(3-hydroxy-6-propoxy-2,4,5-trimethylbenzyl)-N-methyl-2-(4-hydroxy-2-isopropyl-5-methylphenoxy)ethylamine]
- pA2 value (α1 -adrenoceptor): 8.3

Structure (SMILES): CCCCOc1c(C)c(C)c(O)c(C)c1CN(C)CCOc1cc(C)c(O)cc1C(C)C [Ex. 26, N-(2-butoxy-5-hydroxy-3,4,6-trimethylbenzyl)-N-methyl-2-(4-hydroxy-2-isopropyl-5-methylphenoxy)ethylamine]
- pA2 value (α1 -adrenoceptor): 8.3

Structure (SMILES): CC(=O)Oc1c(C)c(C)c(O)c(CN(C)CCOc2cc(C)c(O)cc2C(C)C)c1C [Ex. 27, N-(3-acetoxy-6-hydroxy-2,4,5-trimethylbenzyl)-N-methyl-2-(4-hydroxy-2-isopropyl-5-methylphenoxy)ethylamine]
- pA2 value (α1 -adrenoceptor): 8.1

Structure (SMILES): COc1c(C)c(C)c(OC)c(CN(C)CCOc2cc(C)c(O)cc2C(C)C)c1C [Ex. 28, N-(2,5-dimethoxy-3,4,6-trimethylbenzyl)-N-methyl-2-(4-hydroxy-2-isopropyl-5-methylphenoxy)ethylamine]
- pA2 value (α1 -adrenoceptor): 9.0
- Dose necessary for O.I. value to achieve 90% (rabbit): 40.3 μg/kg, iv

Structure (SMILES): COCCOc1c(C)c(C)c(O)c(C)c1CN(C)CCOc1cc(C)c(O)cc1C(C)C [Ex. 29, N-{3-hydroxy-6-(2-methoxyethoxy)-2,4,5-trimethylbenzyl}-N-methyl-2-(4-hydroxy-2-isopropyl-5-methylphenoxy)ethylamine]
- pA2 value (α1 -adrenoceptor): 8.2

Structure (SMILES): CCOc1c(C)c(C)c(O)c(C)c1CN(CCOc1cc(C)c(O)cc1C(C)C)C(C)C [Ex. 30, N-(2-ethoxy-5-hydroxy-3,4,6-trimethylbenzyl)-N-isopropyl-2-(4-hydroxy-2-isopropyl-5-methylphenoxy)ethylamine]
- pA2 value (α1 -adrenoceptor): 7.2

Structure (SMILES): CCN(CCOc1cc(C)c(O)cc1C(C)C)Cc1c(C)c(O)c(C)c(C)c1OC [Ex. 31, N-ethyl-N-(3-hydroxy-6-methoxy-2,4,5-trimethylbenzyl)-2-(4-hydroxy-2-isopropyl-5-methylphenoxy)ethylamine]
- pA2 value (α1 -adrenoceptor): 8.6

Structure (SMILES): COc1cc(C(C)C)c(OCCN(C)Cc2c(C)c(OC)c(C)c(C)c2OC)cc1C [Ex. 32, N-(2,5-dimethoxy-3,4,6-trimethylbenzyl)-N-methyl-2-(2-isopropyl-4-methoxy-5-methylphenoxy)ethylamine]
- pA2 value (α1 -adrenoceptor): 7.2

Structure (SMILES): CC(=O)Oc1cc(C(C)C)c(OCCN(C)C)cc1C [moxisylyte hydrochloride, reference compound]
- pA2 value (α1 -adrenoceptor): 7.6

Structure (SMILES): COc1cc2nc(N3CCN(C(=O)c4ccco4)CC3)nc(N)c2cc1OC [prazosin hydrochloride, reference compound]
- pA2 value (α1 -adrenoceptor): 8.6
- Dose necessary for O.I. value to achieve 90% (rabbit): 5.6 μg/kg, iv
